According to US4166125A, “2-Oxo-phenylbutanoic acid derivatives” (Grelan Pharmaceutical Co., Ltd., priority 1977, dated 1979):

What was measured:
[1] = test system: gastric mucosa; assay: Effect on gastric mucosa (2) (oral administration); format: in vivo, rat (Sprague-Dawley strain); conditions: rats, 4 hours
Protocol: 4 Hours after the administration, the rat was sacrificed with ether, and its stomach was removed. The stomach was treated with 5% formalin for 3 minutes, and gastric mucosa was observed under a stereoscopic microscope. When gastric lesion in the mucosa was found, the number of the lesion in the mucosa was counted.

[2] = test system: carrageenin edema; assay: Inhibitory effect on carrageenin edema (oral administration); format: in vivo, rat (Sprague-Dawley strain); conditions: for ED40: Rattus norvegicus, po, 3 h
Protocol: Inhibitory effect on carrageenin edema.
The experiment was carried out according to a method conforming to Van Arman, C. […] One hour after the administration of the test compound, 0.1 ml of 1% carrageenin solution in physiological saline was injected subcutaneously into the plantar sarface of the right hind paws of the rats. One hour after injection of carrageenin, the volume of the injected paws was measured hourly for 4 hours. Inhibition percent to carrageenin edema (%)* was calculated in comparison with the volume of paws of rats of a control group, to which only 0.3% CMC-Na solution was orally administered. [formula]

[3] = Stability on storage at 50° C. and humidity of 70% for 1 month; format: physicochemical; conditions: among the compounds (I)
Protocol: For example, when the compounds (I) are kept at temperature of 50° C., and humidity of 70% for 1 month, no substantial change with respect to their appearances and values of quantitative analysis was observed, and no decomposition product was detected by thin-layer chromatography. Thus compounds (I) are prepared for administration in the form of pharmaceutical compositions according to conventional methods in the field of the art, and it is possible to prepare a pharmaceutical composition which comprises a therapeutically effective amount of at least one compound of the general formula (I) as an active ingredient, i.e. anti-inflammatory composition, in solid administration form (e.g. tablets, granules, powders, capsules, suppository), and liquid administration form (e.g. suspension, emulsion). In that case, as carrier, vehicle, solvent or dispersant, there may be used any of those which are known in the field of art. There may be exemplified water, starch, lactose, crystalline cellulose, magnesium stearate, hydroxypropyl cellulose, mannitol, carboxymethyl cellulose, glycol, ethanol, corn oil, peanut oil, castor oil, cacao butter, isocacao, polyoxyethylene stearate. […]

[4] = test system: writhing syndrome due to acetic acid; assay: Analgesic activity, stretching method (oral administration); format: in vivo, mouse (ddY-strain)
Protocol: The experiment was carried out according to a method conforming to Koster R. et al [Federation Proceedings 18, 412, (1960)]. […] 30 Minutes after administration of the test compound, 0.6% acetic acid aqueous solution was injected intraperitoneally to the mice in an amount of 0.1 ml per 10 g of body weight of the mouse, and then frequency of writhing syndrome due to acetic acid was counted for 20 minutes. Inhibition percent to the writhing syndrome was calculated in comparison with frequency of writhing syndrome counted on mice of a control group, to which only 1% gum arabic solution was orally administered.

[5] = test system: gastric mucosa; assay: Effect on gastric mucosa (1) (oral administration); format: in vivo, mouse (ddY-strain); design: unit not given here; conditions: mice, 4 hours
Protocol: 4 Hours after the administration, the mouse was sacrificed with ether, and its stomach was removed. The stomach was treated with 5% formalin for 3 minutes, and gastric mucosa was observed under a stereoscopic microscope. When gastric lesion in the mucosa was found, the length of each lesion was measured. Degree of gastric damage (i.e. GD50)* was calculated on the basis of the length of the lesion of each mouse.
Remark *: GD50 : The value corresponding to the relative frequency of 50% on the normal probability paper plotted the length of gastric lesions of each mouse.

[6] = test system: febrile body temperature (Brewer's yeast); assay: Antipyretic activity (oral administration); format: in vivo, rat (Sprague-Dawley strain); conditions: 30 mg/Kg
Protocol: Antipyretic activity (oral administration)
According to a method conforming to Winter, C. A. et al [The Journal of Pharmacology and Experimental Therapeutics 133, 117, (1961)], 20% Brewer's yeast suspension in physiological saline was injected subcutaneously to 5 male rats in each group (Sprague-Dawley strain) weighing 200 to 250 g in an amount of 1.0 ml per 100 g of body weight of the rat. After fasting for 18 hours, each test compound suspended in 1% gum arabic solution was administered orally to the rats in an amount of 1.0 ml per 100 g of body weight. Then, the rectal temperature of the rats was taken.

[7] = test system: pain threshold of hind paws (Brewer's yeast); assay: Analgesic activity, Randall and Selitto method (oral administration); format: in vivo, rat (Sprague-Dawley strain); conditions: Rattus norvegicus; oral, Litchfield-Wilcoxon method, from increasing percent of pain threshold
Protocol: Randall and Selitto method
According to a method conforming to Randall, L. O. and Selitto, J. J. [Archives Internationales de Pharmacodynamie et de Therapie, 111, 409, (1957)], 0.1 ml of 10% Brewer's yeast suspension in physiological saline was injected subcutaneously into the plantar surface of the right hind paws of 5 male rats in each group (Sprague-Dawley strain) weighing 90 to 110 g. 2 Hours after administration of the yeast suspension, each test compound suspended in 0.3% CMC-Na solution was orally administered to the rats in an amount of 1.0 ml per 100 g of body weight of the rat. 30 Minutes, 60 minutes and 120 minutes after administration of the test compounds, threshold values of left and right hind paws of the rats were measured by an electric pressure device made by Daiwa Kinzoku Co., Ltd. (Japan). The change of threshold was obtained by comparing the pain threshold obtained in a group after the yeast injection with that obtained before the yeast injection, in the same group as above. Increasing percent of pain threshold of the test compound was calculated on the basis of the mean changes of threshold of the test group and of that of the control group. Rats of the control group were administered orally only 0.3% CMC-Na solution.
According to the Litchfield-Wilcoxon method [The Journal of Pharmacology and Experimental Therapeutics, 96, 96, (1949)], ED50 value was calculated as follows on the basis of the increasing percent of pain threshold;

[8] = test system: adjuvant arthritis; assay: Inhibition to adjuvant arthritis (oral administration); format: in vivo, rat (Sprague-Dawley strain); conditions: for Increase in body weight / Weight of the organs: Adrenal glands / Weight of the organs: Spleen / Weight of the organs: Thymus: once a day for 7 days
Protocol: Inhibition to adjuvant arthritis.
According to a method conforming to Fujihira et al [Oyo Yakuri, 5, 169, (1971)], liquid paraffin suspension of Mycobacterium butiricum (hereinafter abbreviated as adjuvant) was injected subcutaneously to right hind paws of male rats (Spraque-Dawley strain) weighing 150 to 170 g in an amount of 0.3 mg/0.05 ml/rat. 14 Days after adjuvant injection, the rats, paws of which swelled to a similar degree, were selected and they were separated into groups. From the 15th day after adjuvant injection, each test compound suspended in 0.3% CMC-Na solution was orally administered once a day for 7 days to the 7 rats in each group in the dose shown in the following table 2.
The 16th, 19th and 22nd days after adjuvant injection the volume of left hand paws (i.e. paws not treated with the adjuvant) of the rats and their body weight were measured. Inhibition percent to the arthritis (edema) is calculated according to the same equation as that used in Experiment 1, and the value of ED40 is calculated on the basis of the inhibition percent. Then the rats were sacrificed with ether and the weight of their thymus, adrenal glands and spleen was determined.

[9] = 50 mg/Kg oral, 3 hour after administration
[10] = 100 mg/Kg oral, 3 hour after administration
[11] = 100 mg/Kg oral, 4 hour after administration

SMILES	Mean number of gastric lesion ([1]; 25 mg/Kg oral)	Mean number of gastric lesion ([1]; 50 mg/Kg oral)	Mean number of gastric lesion ([1]; 100 mg/Kg oral)	Inhibition to carrageenin edema [2, 9]	Inhibition to carrageenin edema [2, 10]	Inhibition to writhing syndrome ([4]; 100 mg/Kg oral)	Inhibition to writhing syndrome ([4]; 200 mg/Kg oral)	Inhibition to writhing syndrome ([4]; 400 mg/Kg oral)	Degree of gastric damage (GD50) ([5]; 100 mg/Kg oral)	Degree of gastric damage (GD50) ([5]; 200 mg/Kg oral)	Degree of gastric damage (GD50) ([5]; 282 mg/Kg oral)	Inhibition to carrageenin edema [2, 11]	ED40 [2]	ED50 [7]	Inhibition to adjuvant arthritis ([8]; 25 mg/Kg oral, 1st day)	Inhibition to adjuvant arthritis ([8]; 25 mg/Kg oral, 4th day)	Inhibition to adjuvant arthritis ([8]; 25 mg/Kg oral, 7th day)	Increase in body weight ([8]; 25 mg/Kg oral)	Weight of the organs: Adrenal glands ([8]; 25 mg/Kg oral)	Weight of the organs: Spleen ([8]; 25 mg/Kg oral)	other results
CC(C(=O)C(=O)O)c1ccc(N2Cc3ccccc3C2=O)cc1 (centres unmarked) [2-Oxo-3-[4-(1-oxo-2-isoindolinyl)phenyl]butanoic acid]	0	0	1.0	22.5%	53.2%	–	–	–	–	–	–	–	–	–	–	–	–	–	–	–	Stability (in words) [3]: more stable
CC(=O)Oc1ccccc1C(=O)O [Aspirin]	1.0	5.4	15.0	–	–	0%	43%	70%	2.0	16.1	18.6	–	–	–	–	–	–	–	–	–	Mean number of gastric lesion ([1]; 12.5 mg/Kg oral): 1.0; Degree of gastric damage (GD50) ([5]; 400 mg/Kg oral): 31.2; Drop of febrile body temperature [6]: 1 °C
CC(C)Cc1ccc(C(C)C(=O)O)cc1 (centres unmarked) [Ibuprofen]	–	–	–	19.2 ± 22.0%	42.2 ± 0.3%	–	–	–	–	–	–	33.7 ± 3.1%	90 mg/kg	130 mg/kg	25.6%	15.7%	32.0%	26.7 g	13.7 ± 0.9 mg/100g of body weight	420.5 ± 34.9 mg/100g of body weight	Inhibition to carrageenin edema ([2]; 50 mg/Kg oral, 4 hour after administration): 23.5 ± 14.2%; Inhibition to carrageenin edema ([2]; 200 mg/Kg oral, 3 hour after administration): 43.9 ± 1.0%; Inhibition to carrageenin edema ([2]; 200 mg/Kg oral, 4 hour after administration): 37.1 ± 4.7%; Weight of the organs: Thymus ([8]; 25 mg/Kg oral): 143.3 ± 8.9 mg/100g of body weight; Inhibition to adjuvant arthritis ([8]; 100 mg/Kg oral, 1st day): 28.1%; Inhibition to adjuvant arthritis ([8]; 100 mg/Kg oral, 4th day): 37.3%; Inhibition to adjuvant arthritis ([8]; 100 mg/Kg oral, 7th day): 53.4%; Increase in body weight ([8]; 100 mg/Kg oral): 16.0 g; Weight of the organs: Adrenal glands ([8]; 100 mg/Kg oral): 15.3 ± 1.7 mg/100g of body weight; Weight of the organs: Spleen ([8]; 100 mg/Kg oral): 438.0 ± 40.0 mg/100g of body weight; Weight of the organs: Thymus ([8]; 100 mg/Kg oral): 127.8 ± 20.7 mg/100g of body weight
CCCCC1C(=O)N(c2ccccc2)N(c2ccccc2)C1=O [Phenylbutazone]	–	0.2	4.2	–	54.3 ± 2.0%	10%	15%	61%	5.2	10.0	13.0	50.7 ± 6.0%	62 mg/kg	250 mg/kg	32.2%	28.8%	38.3%	30.9 g	13.2 ± 1.9 mg/100g of body weight	441.7 ± 29.9 mg/100g of body weight	Mean number of gastric lesion ([1]; 200 mg/Kg oral): 9.6; Inhibition to carrageenin edema ([2]; 12.5 mg/Kg oral, 3 hour after administration): 12.0 ± 5.5%; Inhibition to carrageenin edema ([2]; 12.5 mg/Kg oral, 4 hour after administration): 19.9 ± 3.7%; Inhibition to carrageenin edema ([2]; 25 mg/Kg oral, 3 hour after administration): 9.6 ± 8.3%; Inhibition to carrageenin edema ([2]; 25 mg/Kg oral, 4 hour after administration): 14.3 ± 4.7%; Weight of the organs: Thymus ([8]; 25 mg/Kg oral): 141.6 ± 12.5 mg/100g of body weight; Inhibition to adjuvant arthritis ([8]; 100 mg/Kg oral, 1st day): 34.3%; Inhibition to adjuvant arthritis ([8]; 100 mg/Kg oral, 4th day): 37.9%; Inhibition to adjuvant arthritis ([8]; 100 mg/Kg oral, 7th day): 51.6%; Increase in body weight ([8]; 100 mg/Kg oral): 31.4 g; Weight of the organs: Adrenal glands ([8]; 100 mg/Kg oral): 12.0 ± 1.0 mg/100g of body weight; Weight of the organs: Spleen ([8]; 100 mg/Kg oral): 444.0 ± 39.6 mg/100g of body weight; Weight of the organs: Thymus ([8]; 100 mg/Kg oral): 146.2 ± 14.8 mg/100g of body weight
